“Also recorded” adds a separate entry of the source.
Key:
α2-adrenoceptor = experiment: Intra-cisternal antagonism of clonidine-induced hypotension and bradycardia; format: in vivo, rats
Description: Intra-cisternal injections. […] Briefly, rats weighing 250–300 g were anaesthetized with pentobarbital sodium (50 mg kg^−1, i.p.) and mounted in a David-Kopf stereotaxic instrument (Yeh J L. et al., Brain. Res. Bull., 30:641–648, 1993). The calvarium was exposed and a 1 mm diameter trephine hole was drilled 1.8 mm lateral to the coronary and 1.5 mm posterior to the sagittal sutures. A cannula (0.7 mm O.D.) connected to a Hamilton syringe (RN-705, 5051) by PE-50 was advanced 4.7 mm into the brain using the electrode carrier.

[1] = Micro-injection in NTS: BP and HR; format: in vivo, rats; details: NTS micro-injection, 0.03, 0.3 μmol, within 30 minutes after injection
Excerpt: Micro-injection in NTS. Rats were anesthetized and placed in a David-Kopf stereotaxic instrument. The cerebellum was exposed after removing the skin and occipital bone. […] At the end of experiments, the animals were sacrificed. The brain was removed and sectioned for histological confirmation of the drug application site.

α1-adrenoceptors = experiment: Noradrenaline-induced contraction of isolated rat thoracic aorta; format: cell-based; details: 10^−8, 10^−7, 10^−6 M
Excerpt: (§1) Isolation of rat thoracic aorta. Rat thoracic aorta was removed, cleaned of adhering fat and connective tissue and cut into 3–4 mm wide transverse rings.

α2-adrenergic receptors = experiment: Clonidine-induced contraction of isolated rat thoracic aorta; format: cell-based; details: 10^−8, 10^−7, 10^−6 M
Excerpt: as §1

α2 receptors = experiment: Receptor binding, [3H]yohimbine, rat cortex; set-up: species or system Wistar rat
Description: (§2) Drugs and chemicals. […] Eugenosedin-A synthesized in this laboratory was solvated in 50% absolute alcohol, 10% propylene glycol and further diluted with distilled water. All of the [^3H] ligand was purchased from New England Nuclear Corp. (Boston, Mass., U.S.A.).
(§3) Receptor binding studies. […] The homogenate was pressure filtered through muslin. Filtrate was centrifuged at 1000 g for 10 min. Supernatant was centrifuged at 10,000 g for 12 min at 4° C. The second supernatant was centrifuged at 30,000 g for 15 min at 4° C. The final pellet was re-suspended in assay buffer (75 mM Tris HCl, 25 mM MgCl2, pH 7.4). Protein content was determined by Bradford's method. Radioligand agents and membranes (200–300 μg) were incubated for 60 min at 25° C. with or without the addition of nonspecific binding agents, in a 75 mM Tris HCl buffer with 25 mM MgCl2, to make a final volume of 500 μl. In competitive-binding experiments, the competing agent was added directly to the incubation mixture. Incubation was terminated by addition of 1 ml of ice-cold assay buffer followed by immediate filtration through Whatman GF/C glass fiber filters supported on a 12-port filter manifold (Millipore). The filters were immediately washed 3 times with 5 ml of ice-cold assay buffer and dried in an oven at 60° C. for 2 hours before adding 5 ml of Triton-toluene-based scintillation fluid. Membrane-bound radioligand trapped in the filters was counted in a Beckman LS6500 scintillation system (Fullerton, Calif., U.S.A) with an efficiency of 45%. In each experiment, nonspecifically bound radioligand agents were determined by incubating membrane protein. Specific binding for each sample was obtained by deducting this value from the total binding of radioligand agents.

β2 receptors = molecular target: T1, β2 receptors (Rattus norvegicus, UniProt P10608); experiment: Receptor binding, [3H]CGP-12177, rat lung; set-up: species or system Wistar rat
T1 construct: with [^3H]CGP-12177 on β2 receptors in rat lung; from tissue; host or cells: Wistar rat lung membranes
T1 sequence (P10608 whole entry): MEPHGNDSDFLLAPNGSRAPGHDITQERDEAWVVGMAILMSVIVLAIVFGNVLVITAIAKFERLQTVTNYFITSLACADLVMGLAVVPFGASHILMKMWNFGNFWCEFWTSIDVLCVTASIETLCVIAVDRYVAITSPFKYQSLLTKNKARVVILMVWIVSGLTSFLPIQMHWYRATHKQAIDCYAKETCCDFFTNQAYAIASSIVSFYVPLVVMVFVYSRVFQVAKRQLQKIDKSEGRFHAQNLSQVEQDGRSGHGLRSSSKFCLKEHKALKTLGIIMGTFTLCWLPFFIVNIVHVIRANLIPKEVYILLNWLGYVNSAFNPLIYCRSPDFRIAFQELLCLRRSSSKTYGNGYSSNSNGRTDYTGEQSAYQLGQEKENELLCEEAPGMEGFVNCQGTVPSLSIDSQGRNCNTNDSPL
Description: as §2
as §3, with “Incubation was terminated by addition of 1 ml of ice-cold assay buffer followed by immediate filtration through Whatman GF/C glass fiber filters supported on a 12-port filter manifold (Millipore). The filters were immediately washed 3 times with 5 ml of ice-cold assay buffer and dried in an oven at 60° C. for 2 hours before adding 5 ml of Triton-toluene-based scintillation fluid.” left out, “Specific binding for each sample was obtained by deducting this value from the total binding of radioligand agents.” left out

β1 receptors = molecular target: T2, β1 receptors (Rattus norvegicus, UniProt P18090); experiment: Receptor binding, [3H]CGP-12177, rat ventricle; set-up: species or system Wistar rat
T2 construct: with [^3H]CGP-12177 on β1 receptors in rat ventricle; from tissue; host or cells: Wistar rat heart (ventricle) membranes
T2 sequence (P18090 whole entry): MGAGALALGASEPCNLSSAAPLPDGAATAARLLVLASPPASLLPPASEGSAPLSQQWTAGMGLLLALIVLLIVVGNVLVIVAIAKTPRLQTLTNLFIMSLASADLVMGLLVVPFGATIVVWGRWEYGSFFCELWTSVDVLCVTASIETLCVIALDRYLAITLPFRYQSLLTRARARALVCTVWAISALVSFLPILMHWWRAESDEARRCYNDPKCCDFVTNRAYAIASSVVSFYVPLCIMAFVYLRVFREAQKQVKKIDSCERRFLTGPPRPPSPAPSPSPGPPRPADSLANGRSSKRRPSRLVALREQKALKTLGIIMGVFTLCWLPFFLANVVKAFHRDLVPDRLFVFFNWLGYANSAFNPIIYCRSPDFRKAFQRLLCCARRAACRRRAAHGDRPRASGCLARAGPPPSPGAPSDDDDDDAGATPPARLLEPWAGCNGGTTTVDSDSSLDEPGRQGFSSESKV
Description: as §2
as §3, with “Incubation was terminated by addition of 1 ml of ice-cold assay buffer followed by immediate filtration through Whatman GF/C glass fiber filters supported on a 12-port filter manifold (Millipore). The filters were immediately washed 3 times with 5 ml of ice-cold assay buffer and dried in an oven at 60° C. for 2 hours before adding 5 ml of Triton-toluene-based scintillation fluid.” left out, “Specific binding for each sample was obtained by deducting this value from the total binding of radioligand agents.” left out

5-HT re-uptake sites = molecular target: T3, 5-HT re-uptake sites (Rattus norvegicus, UniProt P31652); experiment: 5-HT re-uptake in cerebral cortex synaptosomes; format: biochemical, Wistar rats
T3 construct: the cerebral cortex or striatum was dissected and crude synaptosomes were prepared; from tissue; host or cells: crude synaptosomes of Wistar rat cerebral cortex
T3 sequence (P31652 whole entry): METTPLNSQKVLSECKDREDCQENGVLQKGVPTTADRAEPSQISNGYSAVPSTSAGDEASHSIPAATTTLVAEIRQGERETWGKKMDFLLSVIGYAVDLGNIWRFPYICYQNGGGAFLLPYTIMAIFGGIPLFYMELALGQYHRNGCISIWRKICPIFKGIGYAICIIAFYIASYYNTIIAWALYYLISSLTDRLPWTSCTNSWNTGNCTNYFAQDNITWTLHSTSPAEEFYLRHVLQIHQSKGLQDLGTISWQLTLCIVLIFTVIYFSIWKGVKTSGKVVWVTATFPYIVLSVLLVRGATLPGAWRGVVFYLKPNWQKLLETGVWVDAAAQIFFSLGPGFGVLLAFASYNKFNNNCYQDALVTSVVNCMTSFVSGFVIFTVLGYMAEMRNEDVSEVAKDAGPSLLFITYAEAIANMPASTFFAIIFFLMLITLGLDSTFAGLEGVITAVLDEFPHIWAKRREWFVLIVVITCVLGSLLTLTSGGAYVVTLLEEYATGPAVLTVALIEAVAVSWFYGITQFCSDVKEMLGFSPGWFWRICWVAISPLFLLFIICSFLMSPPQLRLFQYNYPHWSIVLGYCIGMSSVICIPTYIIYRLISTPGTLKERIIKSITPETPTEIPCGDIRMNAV
Description: Saline was added to the incubation mixture, which was then filtered through a Whatman GF/B glass filter under reduced pressure. To determine nonspecific uptake, incubation was performed at 0° C.

[2] = tested on: Fe2+-ascorbic acid-induced lipid peroxidation; experiment: Lipid peroxidation (TBARS) in rat brain homogenate; format: biochemical; details: n=5, read-out: IC50 of inhibition of Fe2+-ascorbic acid-induced lipid peroxidation
Description: Antioxidant and peroxyl radical scavenging activities. Rat brain homogenate was made in 0.9% saline containing 10 mg tissue/ml. The rates of membrane lipid peroxidation were measured by the formation of thiobarbituric acid (TBA)-reactive substance (TBARS). Rat brain homogenates (1 ml) were incubated at 37° C. for 5 min with 10 μl of test compound or vehicle. Lipid peroxidation was initiated by the addition of 0.1 ml of 0.25 mM FeCl2 and 1 mM ascorbic acid (Huang Y C. et al., Drug. Dev. Res., 47:77–89, 1999). After 30 min of incubation, the reaction was stopped by adding 0.1 ml of 0.2% BHT. TBA reagent was then added and the mixture was heated for 30 min in a boiling water bath. TBARS was extracted by n-butanol and measured at 532 nm. The amount of TBARS was quantified using the linear regression obtained from malondialdehyde (MDA) standards.

[3] = Peroxyl radical scavenging, B-phycoerythrin/AAPH; format: biochemical
Description: The stoichiometric factors of the test compounds with hydrophilic peroxyl radicals were calculated by the equation as mentioned Ascorbic acid was used as a positive control.

[4] = LPS-induced vascular hyporeactivity of isolated aorta to phenylephrine; format: in vivo, rats
Excerpt: as §1

TNF-α = experiment: Plasma cytokine immunoreactivity after LPS: TNF-α; format: in vivo, Wistar rats
Description: Plasma cytokine immunoreactivity and blood glucose. Blood was collected from venous cannula, injected into ice-cold heparinized Eppendorf tubes and centrifuged at 1500 rpm for 10 min at 4° C. Plasma supernatant was stored at −70° C. until analyzed. Solid phase enzyme immunoassay that specifically detects murine IL-1β, IL-6, IFN-γ and TNF-α was used with a detection limit of >10 pg/ml (Endogen, U.S.A). Pretreatment with eugenosedin-A and other agents was performed 15 minutes before intravenous injection of LPS. Blood was collected from venous cannula. Blood glucose was measured with a glucose test strip (Glucotide, Bayer, U.S.A) at 1, 3 and 5 hours.

5-HT2A receptor = 5-HT2A receptor (Rattus norvegicus, UniProt P14842); experiment: Receptor binding, [3H]ketanserin, rat cortex; set-up: from tissue; host or cells: Wistar rat cortex membranes; species or system Wistar rat
Sequence of 5-HT2A receptor (P14842 whole entry): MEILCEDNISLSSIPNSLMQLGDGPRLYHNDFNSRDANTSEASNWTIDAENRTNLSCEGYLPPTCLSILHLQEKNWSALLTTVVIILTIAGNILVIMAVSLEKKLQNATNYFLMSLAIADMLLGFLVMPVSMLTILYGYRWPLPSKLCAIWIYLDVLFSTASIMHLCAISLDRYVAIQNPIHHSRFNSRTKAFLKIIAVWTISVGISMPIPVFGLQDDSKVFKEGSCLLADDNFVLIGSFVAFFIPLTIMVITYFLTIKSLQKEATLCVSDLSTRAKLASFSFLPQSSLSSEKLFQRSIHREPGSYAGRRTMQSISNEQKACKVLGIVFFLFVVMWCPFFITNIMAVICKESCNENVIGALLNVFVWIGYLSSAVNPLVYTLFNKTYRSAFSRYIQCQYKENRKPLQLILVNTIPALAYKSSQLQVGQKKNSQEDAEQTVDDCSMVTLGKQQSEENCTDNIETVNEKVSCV
Description: as §2, §3

## CC=Cc1ccc(OCC(O)CN2CCN(c3ccccc3Cl)CC2)c(OC)c1 (centres unmarked) [eugenosedin-A]
α2-adrenoceptor; 0.3 μmol
  bradycardic effect of clonidine: reduced the bradycardic effect of clonidine
α2-adrenoceptor; given 15 min before clonidine injection
  hypotensive effect of clonidine: antagonized the hypotensive effect of clonidine
α2-adrenoceptor; low dose, 0.03 μmol
  clonidine-induced bradycardia: did not inhibit clonidine-induced bradycardia
[1]
  pressor response and HR: mild, but significant, pressor responses and increased the HR
α1-adrenoceptors
  cumulative noradrenaline-induced contractile activities: competitively inhibited
α2-adrenergic receptors
  cumulative clonidine-induced contractile activities: competitively inhibited
α2 receptors
  Ki: 1.39 µM
  order of α2 receptor binding potency: prazosin >eugenosedin-A >ketanserin >methylsergide >propranolol and 5-HT
β2 receptors
  Ki: > 10 µM
β1 receptors
  binding affinity for β1-adrenoceptors: some binding affinity for β1-adrenoceptors
5-HT re-uptake sites
  IC50: 34.3 µM
[2]
  IC50: 2.68 ± 0.05 µM
[3]
  scavenging of AAPH-derived peroxyl radicals (B-phycoerythrin fluorescence, lag time): concentration-dependent decrement of fluorescence and prolongation of the lag time
[4]; 1 mg kg^−1 i.v. before or after LPS, phenylephrine 10^−8~10^−4 M
  aortic contractility to phenylephrine in LPS-treated rats: increased aortic contractility more than the vehicle group
[4]; rat, in vivo
  protection from LPS-induced hyporeactivity of the aorta compared with yohimbine, trazodone, aminoguanidine and ascorbic acid: more effective
TNF-α; 3 hours after LPS 10 mg kg^−1 i.v., pretreatment (eugenosedin-A 1 mg kg^−1 i.v.)
  LPS-induced increase in TNF-α: significantly inhibited
TNF-α; 5 hours after LPS 10 mg kg^−1 i.v., pretreatment
  LPS-induced increase in TNF-α: significantly reduced
5-HT2A receptor
  binding affinity for 5-HT2A receptors: higher binding affinity than other β-adrenergic antagonists; also recorded: higher binding affinity than propranolol
  order of potency on 5-HT2A receptors: ketanserin >methylsergide >eugenosedin-A >5-HT >propranolol >prazosin
5-HT2A receptor; [3H]ketanserin, rat cortex
  Ki: 0.0333 µM
